This note sets out measurements from ChEMBL document CHEMBL1649321, “Plasmid-mediated resistance to cephalosporins in Salmonella enterica serovar Typhi” (2010).

Assay [1] deals with Escherichia coli. As to the kind of experiment: Antimicrobial activity against Escherichia coli W3110 transformant harboring bla CTX-M-15 gene by broth microdilution method. Format: functional.
For assay [2], the system named is Salmonella typhi. As to the kind of experiment: Antimicrobial activity against Salmonella enterica serovar Typhi isolate 080049Ty by broth microdilution method. Format: functional, Salmonella enterica subsp. enterica serovar Typhi. For orientation: Dilution methods test growth across graded concentrations, often in twofold steps.
For assay [3], the system named is Salmonella typhi. As to the kind of experiment: Antimicrobial activity against Salmonella enterica serovar Typhi isolate 080048Ty by broth microdilution method. Format: functional, Salmonella enterica subsp. enterica serovar Typhi.
The test system of assay [4] is Salmonella typhi. As to the kind of experiment: Antimicrobial activity against Salmonella enterica serovar Typhi isolate 080048Ty transconjugant harboring bla CTX-M-15 gene by broth microdilution method. Format: functional, Salmonella enterica subsp. enterica serovar Typhi.
The subject of assay [5] is Salmonella typhi. As to the kind of experiment: Antimicrobial activity against Salmonella enterica serovar Typhi isolate 080048Ty transconjugant harboring bla CTX-M-15 gene by broth microdilution method in presence of beta-lactamase inhibitor clavulanic acid. Format: functional, Salmonella enterica subsp. enterica serovar Typhi.
Assay [6] relates to Salmonella typhi. As to the kind of experiment: Antimicrobial activity against Salmonella enterica serovar Typhi isolate 080049Ty by broth microdilution method in presence of beta-lactamase inhibitor clavulanic acid. Format: functional, Salmonella enterica subsp. enterica serovar Typhi.
For assay [7], the system named is Escherichia coli. As to the kind of experiment: Antimicrobial activity against Escherichia coli W3110 transformant harboring bla CTX-M-15 gene by broth microdilution method in presence of beta-lactamase inhibitor clavulanic acid. Format: functional.
Assay [8] has as its system Salmonella typhi. As to the kind of experiment: Antimicrobial activity against Salmonella enterica serovar Typhi isolate 080048Ty by broth microdilution method in presence of beta-lactamase inhibitor clavulanic acid. Format: functional, Salmonella enterica subsp. enterica serovar Typhi.

Values after ≈ are worked out from the molar mass of the structure shown.

For `CC1(C)S[C@@H]2[C@H](NC(=O)[C@H](N)c3ccccc3)C(=O)N2[C@H]1C(=O)O` [AMPICILLIN], the MIC in the assay with Escherichia coli [1] was over 64 µg/mL; against Salmonella typhi [2], over 64 µg/mL; in the assay on Salmonella typhi [3] it was under 2 µg/mL; against Salmonella typhi [4], over 64 µg/mL.
As to `CC(C)(O/N=C(\C(=O)N[C@@H]1C(=O)N2C(C(=O)[O-])=C(C[n+]3ccccc3)CS[C@H]12)c1csc(N)n1)C(=O)O` [CEFTAZIDIME], the MIC was 0.25 µg/mL with Salmonella typhi [5]; 0.25 µg/mL with Salmonella typhi [6]; 64 µg/mL (≈ 117 µM) against Escherichia coli [1]; 64 µg/mL (≈ 117 µM) in the assay on Salmonella typhi [2]; 0.25 µg/mL with Escherichia coli [7]; 1 µg/mL (≈ 1.83 µM) against Salmonella typhi [3]. Further, the figures for the MIC in the assay on Salmonella typhi [8] and with Salmonella typhi [4] were 0.25 µg/mL and 64 µg/mL (≈ 117 µM), respectively.
Consider `CO/N=C(\C(=O)N[C@@H]1C(=O)N2C(C(=O)O)=C(COC(C)=O)CS[C@H]12)c1csc(N)n1` [CEFOTAXIME], for which the MIC is under 0.125 µg/mL with Salmonella typhi [5]; under 0.125 µg/mL with Salmonella typhi [6]; over 128 µg/mL with Escherichia coli [1]; over 128 µg/mL with Salmonella typhi [2]; under 0.125 µg/mL with Escherichia coli [7]; 0.125 µg/mL (≈ 0.274 µM) in the assay on Salmonella typhi [3]. In addition, the values for the MIC with Salmonella typhi [8] and in the assay on Salmonella typhi [4] were under 0.125 µg/mL and over 128 µg/mL, respectively.
Regarding `CO/N=C(\C(=O)N[C@@H]1C(=O)N2C(C(=O)O)=C(CSc3nc(=O)c(O)nn3C)CS[C@H]12)c1csc(N)n1` [CEFTRIAXONE], the minimum inhibitory concentration (MIC) in the assay with Escherichia coli [1] is over 128 µg/mL; in the assay on Salmonella typhi [2] it was over 128 µg/mL; against Salmonella typhi [3], 0.125 µg/mL (≈ 0.225 µM); against Salmonella typhi [4] it was over 128 µg/mL.
Consider `CCn1cc(C(=O)O)c(=O)c2ccc(C)nc21` [NALIDIXIC ACID], for which the MIC was 32 µg/mL (≈ 138 µM) in the assay on Escherichia coli [1], over 64 µg/mL against Salmonella typhi [2], over 64 µg/mL with Salmonella typhi [3] and over 64 µg/mL against Salmonella typhi [4].

A word on the MIC: it is the smallest concentration in the dilution series that meets the test's criterion for growth inhibition.
